Data taken from PubChem BioAssay AID1963442 (Molecular Pharmacology Branch, DTP, NCI, 2024).
“And” between values parts separate entries of the source, which are not always exact repeats. Equal values may be shown once.

Tested on: MPNST complex spheroid with HUVEC/MSC, growth, % test/control
Assay: Anticancer human tumor MPNST cell line growth inhibition [Asc];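 also: compounds left on spheroids for seven days before reading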
Details: for viability, T/C: stronger effect = lower value
Protocol: Multicellular complex tumor spheroid response to apoptosis pathway targeting inhibitors Alrizomadlin, Pelcitoclax, and Dasminapant in combination with a variety of drugs and investigational agents in selected tumor cell lines
The MDM2 inhibitor alrizomadlin, the Bcl-2/Bcl-xL inhibitor pelcitoclax, and the IAPs inhibitor dasminapant were evaluated both individually and in combination with standard of care and investigational anticancer small molecules within a complex spheroid model of solid tumors. . Complex spheroids include a stromal component modeled by human endothelial cells (HUVEC) and fibroblasts modeled by human mesenchymal stem cells (MSCs). The concentration ranges selected for each drug and investigational agent were based upon clinically achievable concentrations if the clinical Cmax of the agent was known.
Compounds. The drugs and investigational agents: alrizomadlin (APG-115; NSC831270), pelcitoclax (APG-1252; NSC835773), dasminapant (APG-1387;NSC834197), TAK-243 (NSC785004), copanlisib (NSC809693), olaparib (NSC753686), talazoparib (NSC767125), cobimetinib (NSC 768068), eltanexor (KPT-8602, NSC 794443), abemaciclib (NSC 768073), sotorasib (NSC818433), adagrasib (NSC 831453), MRTX-1133 (NSC 836407), Iadademestat (ORY1001, NSC 806812), and RMC-4630 (NSC839698), were obtained from the NCI Developmental Therapeutics Program Chemical Repository. The FDA-approved anticancer drug set is available from the Developmental Therapeutics Program at https://dtp.cancer.gov/organization/dscb/obtaining/available plates.htm. […] The stock solutions were prepared in dimethyl sulfoxide (DMSO, Sigma-Aldrich, St. Louis, MO, cat. D2650) at 800-fold the tested concentration and stored at -70 degrees C prior to their use. All drugs and investigational agents were tested over a range starting from a high concentration at or near the clinical Cmax and decreasing in half-log increments. If the clinical Cmax for an agent had not been determined, the highest concentration tested was 10 microM.
The patient-derived cancer (PDC) cell lines include five colon adenocarcinomas: 186277-243-T-J2-PDC, 616215-338-R-J1-PDC, 439559-082-T-J2-PDC, 463943-066-T-J2-PDC, and 519858-162-T-J1-PDC; three pancreatic carcinomas: 323965-272-R-J2-PDC, 521955-158-R6-J3-PDC, and 521955-158-R2-J5-PDC; two uterine sarcomas: 327498-152-R-J2-PDC and 993429-296-R-J1-PDC; two rhabdomyosarcomas: 755483-174-R-J1-PDC and 772245-204-R-J1-PDC; two soft tissue sarcomas: 126254-015-R-J1-PDC and 494315-158-R-J1-PDC; two malignant fibrous histiocytomas: 317291-083-R-J1-PDC and 596521-263-R-J1-PDC; two breast carcinomas: 171881-019-R-J1-PDC and 885512-296-R-J2-PDC; and one ovarian carcinoma: 6556581-035-R-J-PDC were obtained from the NCI PDMR, (https://pdmr.cancer.gov). The established cell lines HSSY-2 synovial sarcoma (RRID:CVCL 8719), SYO-1 synovial sarcoma (RRID:CVCL_7146), MPNST malignant peripheral neural sheath tumor were obtained from the Sloan Kettering Institute. The following established cell lines were purchased from the American Type Culture Collection (ATCC, Manassas, VA), Sor the received from the NCI repository:, PANC-1 pancreatic carcinoma (CRL-1469, RRID:CVCL_0480), OVCAR-5 ovarian carcinoma (RRID:CVCL_1628), OVCAR-8 ovarian carcinoma (RRID:CVCL_1629), , MCF-7 breast carcinoma (CRL-12584, RRID:CVCL_0031), MDA-MB-231 breast carcinoma (CRL-12532, RRID:CVCL_0062), NCI-H1876 small cell lung carcinoma (CRL-5902, RRID:CVCL_1503), NCI-H510A small cell lung carcinoma (HTB-184, RRID:CVCL_1565), NCI-H1417 (CRL-5869, RRID:CVCL_1469), and NCI-H196 small cell lung carcinoma (CRL-5823, RRID:CVCL_1509). Dr. Peter Houghton (Greehey Children's Cancer Research Institute, University of Texas Health Science Center, San Antonio, TX) provided Rh-18 rhabdomyosarcoma (RRID:CVCL_1659). Pooled donor human umbilical vein endothelial cells (HUVEC, Lonza, cat. CC-2519) and human mesenchymal stem cells (hMSC, Lonza, cat. PT-2501) were purchased from Lonza (Walkersville, MD).
Cell Culture. […]

[1] = compound alone, run of 10/11/2022

Compound	viability, T/C (compound 0.0316 µM)	viability, T/C (compound 0.1 µM)	viability, T/C (compound 0.316 µM)	viability, T/C (compound 1 µM)	IC50 (curve of compound)	further results
C#Cc1c(F)ccc2cc(O)cc(-c3ncc4c(N5CC6CCC(C5)N6)nc(OCC56CCCN5CC(F)C6)nc4c3F)c12 (centres undefined)	76.6% and 93.8% and 88.8%	87% and 113% and 69.2%	74.9% and 107% and 83.5%	61.2% and 94.7% and 70.7%	> 10000 nM	viability, T/C (compound 3.16 µM): 88% and 93.3% and 87.2%; viability, T/C (compound 10 µM): 50% and 97.8% and 110%
C=C(F)C(=O)N1CCN(c2nc(OCC3CCCN3C)nc3c2CCN(c2cccc4cccc(Cl)c24)C3)CC1CC#N (centres undefined)	65.6% and 93.2% and 99.3%	75% and 68.3% and 86.5%	90.8% and 73% and 75.3%	85% and 68.2% and 94.8%	2990 nM and > 10000 nM	viability, T/C (compound 3.16 µM): 48.5% and 60.2% and 82.2%
C=CC(=O)N1CCN(c2nc(=O)n(-c3c(C)ccnc3C(C)C)c3nc(-c4c(O)cccc4F)c(F)cc23)C(C)C1 (centres undefined)	99.3% and 91.7% and 80.4%	81% and 76.5% and 90.9%	99% and 90.2% and 92.3%	87.4% and 78.7% and 108%	> 10000 nM	viability, T/C (compound 3.16 µM): 104% and 121% (2×); viability, T/C (compound 10 µM): 101% and 143% and 119%
CCN1C(C(=O)NC23CCC(C(=O)O)(CC2)CC3)C(c2cccc(Cl)c2F)C2(C(=O)Nc3cc(Cl)ccc32)C12CCCCC2 (centres undefined)	–	–	–	–	1810 nM and > 3000 nM	viability, T/C (compound 0.00949 µM): 86.6% and 74.5%; IC50 [1]: > 3000 nM
CCN1CCN(Cc2ccc(Nc3ncc(F)c(-c4cc(F)c5nc(C)n(C(C)C)c5c4)n3)nc2)CC1	92.8% and 78.2% and 78.8%	70.1% and 54% and 60.7%	84.9% and 63% and 78.3%	92.1% and 65.1% and 69%	> 1000 nM	viability, T/C (compound 0.00316 µM): 73% and 74.2% and 85.2%; viability, T/C (compound 0.01 µM): 91.6% and 72.8% and 69.6%
CNC(C)C(=O)NC1CN(S(=O)(=O)c2cccc(S(=O)(=O)N3CCC4CCC(C(=O)NC(c5ccccc5)c5ccccc5)N4C(=O)C(NC(=O)C(C)NC)C3)c2)CCC2CCC(C(=O)NC(c3ccccc3)c3ccccc3)N2C1=O (centres undefined)	–	–	–	–	> 1000 nM	–
COc1c(OCCCN2CCOCC2)ccc2c3n(c(=NC(=O)c4cnc(N)nc4)nc12)CCN3	70.7% and 52.5% and 38.8%	39.8% and 39.5% and 13.7%	31.4% and 24.9% and 9.45%	24% and 18.9% and 5.21%	68.7 nM and 49.5 nM and 11.5 nM	viability, T/C (compound 0.00316 µM): 84.8% and 70.3% and 54.3%; viability, T/C (compound 0.01 µM): 97% and 81% and 50.6%
Cc1c(S(C)(=O)=O)c(-c2cc(F)cc(N3CCN(c4ccc(NS(=O)(=O)c5ccc(NC(CCN6CCC(C(=O)OCCCP(=O)(O)O)CC6)CSc6ccccc6)c(S(=O)(=O)C(F)(F)F)c5)cc4)CC3)c2)c(-c2ccc(Cl)cc2)n1C(C)C (centres undefined)	–	–	–	–	–	IC50 [1]: > 10000 nM
Cc1nc(N2CCC3(CC2)COC(C)C3N)c(CO)nc1Sc1ccnc(N)c1Cl (centres undefined)	–	–	–	–	964 nM and > 3000 nM	viability, T/C (compound 0.00949 µM): 64.8% and 95.2% and 81.6%; viability, T/C (compound 0.03 µM): 69.3% and 115% and 93.2%; viability, T/C (compound 0.0949 µM): 81% and 125% and 89.5%; viability, T/C (compound 0.3 µM): 48.4% and 109% and 92%; viability, T/C (compound 0.949 µM): 55.7% and 115% and 93.5%; viability, T/C (compound 3 µM): 18.5% and 86.6% and 80.5%
Cn1ncnc1[C@H]1c2n[nH]c(=O)c3cc(F)cc(c23)N[C@@H]1c1ccc(F)cc1	70% and 42.6% and 64.6%	75.9% and 56.8% and 44%	–	–	> 100 nM and 30.7 nM	viability, T/C (compound 0.000316 µM): 96.5% and 77% and 100%; viability, T/C (compound 0.001 µM): 85.1% and 66.4% and 78.8%; viability, T/C (compound 0.00316 µM): 81.7% and 67.3% and 52.8%; viability, T/C (compound 0.01 µM): 80.5% and 61.2% and 65.7%
NC(=O)C(=Cn1cnc(-c2cc(C(F)(F)F)cc(C(F)(F)F)c2)n1)c1cncnc1	–	–	–	–	–	viability, T/C (compound 0.000949 µM): 66.2% and 56.3% and 21.6%; viability, T/C (compound 0.003 µM): 90% and 89% and 18%; viability, T/C (compound 0.00949 µM): 81.3% and 73.5% and 18.6%; viability, T/C (compound 0.03 µM): 67.2% and 38.9% and 20.1%; viability, T/C (compound 0.0949 µM): 61.8% and 57.6% and 17.8%; viability, T/C (compound 0.3 µM): 53.9% and 40.3% and 22.3%
